One test has as its system Caco-2 cells. The test can be described thus: Trans-epithelial electrical resistance (TEER) across Caco-2 mono-layer. Format: cell-based, human. The conditions noted are these: four replicates. The protocol:
Caco-2 cells (a cell-line derived from human colon adenocarcinoma) were grown as a confluent mono-layer on the surface of a porous membrane (pore size 0.4 μm, surface area 0.33 cm^2) separating two aqueous compartments, the upper compartment filled with 200 μl of culture medium, and the lower compartment containing 600 μl. Electrical resistance across the mono-layer was measured using an epithelial voltohmeter connected to electrodes inserted into the medium on either side of the mono-layer in the upper and lower compartments. This trans-epithelial electrical resistance (TEER) was measured immediately before, and 15 minutes after the addition of aromatic alcohols to the upper compartment (see Table 6 below). Use of the compounds diluted two to four-fold below those concentrations shown eliminates the falls in electrical resistance observed. Fall in TEER is considered indicative of the appearance of aqueous channels between cells, and is evidence that the mechanism of action of the aromatic alcohols tested, in exerting their absorption enhancing activity, is via opening or loosening of tight junctions between intestinal cells.

A short description of test [1]: Plasma glucose after intra-jejunal administration of insulin capsules to conscious pigs. Format: in vivo. The conditions noted are these: one capsule. As to the method:
Formulations prepared as described in examples 1 and 2 were administered (one capsule per animal) directly to the intestine of conscious pigs (40 to 60 kg) via an in-dwelling stoma implanted surgically in the jejunum. Before and after administration, at the intervals shown, blood samples were taken for analysis of blood glucose levels. As a control, capsules containing 200 iu of unformulated insulin were also administered intra-jejunally.

With `OCc1ccccc1` [Benzyl alcohol], in the test on Caco-2 cells (15 minutes after addition to upper compartment, concentration 40 μl/ml), the “TEER 15 minutes after” value is −1.6 ± 3.2 ohm · cm^2. Besides, the “TEER Before addition” value in the test with Caco-2 cells (immediately before addition of agent) was 447.2 ± 76.9 ohm · cm^2.

As for “Control (unformulated insulin): capsules containing 200 iu of unformulated insulin administered intra-jejunally”, the “Changes in plasma glucose” value in test [1] (15 minutes, + s.d.) is on record as 0.01 + 0.24 mmol/l; in test [1] (30 minutes, + s.d.), −0.05 + 0.21 mmol/l; in test [1] (45 minutes, + s.d.), −0.06 + 0.17 mmol/l; in test [1] (60 minutes, + s.d.) it was −0.32 + 0.23 mmol/l; in test [1] (90 minutes, + s.d.) it was −0.17 + 0.21 mmol/l; in test [1] (120 minutes, + s.d.), −0.22 + 0.32 mmol/l. Further, the “Changes in plasma glucose” value in test [1] (180 minutes, + s.d.) is −0.13 + 0.21 mmol/l; in test [1] (240 minutes, + s.d.), −0.34 + 0.32 mmol/l; in test [1] (time −10 minutes) it was 0.00 mmol/L.

The values above are taken from patent US7303762B2, “Absorption enhancers” (Axcess Limited, priority 2000, dated 2007).
